The text below walks through data of paper PMC11036874, “In vitro characterization of [^125I]HY-3-24, a selective ligand for the dopamine D3 receptor” (Frontiers in Neuroscience, 2024).

Where two headings read alike, the source gives them in different places.

The target in data set [1] is T1, D3R (Rattus norvegicus, UniProt P19020).
T1 construct: The ventral striatum was isolated by dissection on ice; tissue Innovative research, Inc; host or cells: Sprague–Dawley rat brain: ventral striatal homogenates; frozen brain sections
T1 sequence (P19020 whole entry): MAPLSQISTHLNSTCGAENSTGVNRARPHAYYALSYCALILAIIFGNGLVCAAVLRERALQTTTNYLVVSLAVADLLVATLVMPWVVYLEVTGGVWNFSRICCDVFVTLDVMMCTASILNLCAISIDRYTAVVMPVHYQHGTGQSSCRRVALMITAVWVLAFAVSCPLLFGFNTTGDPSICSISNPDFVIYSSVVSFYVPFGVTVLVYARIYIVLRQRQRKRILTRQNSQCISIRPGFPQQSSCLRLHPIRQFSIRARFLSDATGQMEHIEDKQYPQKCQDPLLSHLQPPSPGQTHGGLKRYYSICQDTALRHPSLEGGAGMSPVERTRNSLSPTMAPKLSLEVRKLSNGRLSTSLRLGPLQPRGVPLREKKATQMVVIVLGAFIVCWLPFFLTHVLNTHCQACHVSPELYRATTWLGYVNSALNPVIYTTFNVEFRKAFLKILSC
The data set is described as follows: Competition binding study of [125I]HY-3-24 in rat ventral striatal membranes. The following applies: for fold lower affinity/potency for displacing [125I]HY-3-24 relative to eticlopride: rat ventral striatum. The method, then: (§1) Frozen rat brains (Sprague–Dawley rat, Male, 6–8 weeks old) were obtained from Innovative research, Inc. (Novi, Michigan, United States). The ventral striatum was isolated by dissection on ice. Cold homogenization buffer (HB, 20 mM Tris–HCl, 5 mM MgCl2, 1 mM EDTA, pH7.5) was added and the tissue homogenized by mortar and pestle on ice. Homogenized tissue was centrifuged at 10,000 × g, 4°C for 30 min. Supernatant was removed and pellet was mixed with cold HB buffer by vortex. This process was repeated two times to get rat ventral striatal homogenates; and protein amount was determined using a BCA protein assay kit. Homogenized tissue homogenates were stored at −80°C until use.
10 μM of (+)-butaclamol was used for determination of non-specific binding. The final reaction volume was 200 μL and the assay mixture was incubated at RT for 60 min. […] The filter was washed with cold buffer (3 times) and counted by gamma counter. The value of Ki was calculated using nonlinear regression analysis by PRISM 9 and the results was presented mean ± SD by three individual experiments.

In data set [2] the target is T1, D3R. Description: D3R and D2R blocking studies of [125I]HY-3-24 in rat striatal homogenates. It is filed as binding. The following applies: blocker at 2.4 nM, rat striatal membranes, RT 2 h. The method, then:
For the D3R and D2R blocking studies, [^125I]HY-3-24 (0.3 nM) was mixed with 100 μg of protein and incubated at RT for 2 h in the presence or absence of 30 nM cold HY-3-24, 100 nM SB-277-011A, 10 nM SB-277-011A, or 2.4 nM L-741,626. [^125I]HY-3-24 bound protein was collected by fast filtration methods (GF/C filter soaked in 1% PEI, Brandel Inc., Maryland, United States) and counted using gamma counter (PerkinElmer, Massachusetts, United States).

The next data set has as its target D2 receptors. On the set-up: method as in Kulagowski et al., 1996. The following applies: ref Kulagowski et al., 1996; read-out: Ki for displacing [3H]spiperone to D2 receptors; cited from earlier work.
Data set [3] addresses hD2R. Details: method as in Yang et al., 2000. The following applies: ref Yang et al., 2000; cited from earlier work.
For data set [4], the target named is hD3R. On the set-up: method as in Yang et al., 2000. The following applies: ref Yang et al., 2000; cited from earlier work.
Data set [5] deals with T1, D3R. Description: In vitro autoradiography, rat brain sections. It is filed as binding. The method, then: (§2) Regional brain distribution of [^125I]HY-3-24 binding was determined by in vitro autoradiography using Sprague–Dawley rat and non-human primate brains. A Cryotome (Leica Biosystems, Germany) was used for sectioning frozen brains by coronal and/or sagittal direction, and the thickness of tissue was 10–20 μm. Sectioned slides were stored at −80°C until use. The adjacent brain slides were warmed to RT for 20 min, the slides were incubated with cold reaction buffer (50 mM Tris–HCl, 150 mM NaCl, 1 mM EDTA, pH 7.5) at RT for 10 min, and the buffer was discarded. The slides were then incubated with […] of [^125I]HY-3-24 at RT for 1 h. For non-specific binding, 2 μM of (+)-butaclamol was used. After incubation, the slides were washed with cold buffer (three times) for 2 min, then air dried at RT for 10 min. Radiolabeled brain tissues were exposed to BAS imaging plate (Fujifilm, Tokyo, Japan) for 3 days, and the result was digitized by Typhoon FLA 7000 (GE Healthcare, Illinois, United States) and analyzed by Multi Gauge V3.0. For blocking studies comparing (+)-butaclamol and raclopride, brain slides were initially pretreated with blocking agent (50 nM) for 1 h. prior to the addition of the radioligand (0.3 nM).

Data set [6] in a line: Distribution coefficient (LogD7.4), shake-flask. As to conditions: n-octanol / 0.01 M phosphate buffer pH 7.4, shake-flask, quintuplicate. The class given is physicochemical. The method, then: In a separatory funnel, 10 mL of n-octanol and 20 mL of 0.01 M phosphate buffer (pH 7.4) solution were placed and 5 μL of [^125I]HY-3-24 (700 kBq) was added. The mixture was vigorously shaken for 1 min followed by standing for 20 min to completely separate the layers. Five 1 mL of aliquots were taken from each phase and the radioactivity of each fraction was measured by a Wizard2 Automatic Gamma Counter. LogD7.4 was measured in quintuplicate and calculated as the logarithm of the ratio of radioactivity in organic phase to that in water phase.

In data set [7] the target is T1, D3R. The data set is described as follows: Saturation/equilibrium binding of [125I]HY-3-24 on rat ventral striatum. The method, then:
as §1
To confirm saturation time of [^125I]HY-3-24 with prepared membrane, [^125I]HY-3-24 (~0.3 nM) was mixed with 100 μg of membrane and incubated at RT up to 2 h. [^125I]HY-3-24 bound protein was collected by fast filtration methods (CF/C filter, Brandel Inc., Maryland, United States) and counted using gamma counter (PerkinElmer, Massachusetts, United States).
For saturation binding study, [^125I]HY-3-24 (0.001–1.6 nM concentration range) was incubated with 100 μg/100 μL of homogenized protein at RT for 60 min. Non-specific binding was defined the presence of 10 μM (+)-butaclamol, and total reaction volume was 200 μL. The reaction was finished by adding cold buffer (10 mM Tris–HCl, 150 mM NaCl, pH 7.5), and [^125I]HY-3-24 bound protein was filtered by 24-well harvester (Brandel Inc., Maryland, United States) through CF/C filter soaked with 1% PEI, and washed three times with 4 mL cold buffer. The collected filter was counted by gamma counter and data were analyzed by PRISM 9. The values of Bmax and Kd were obtained by three individual experiments.

The target in data set [8] is T2, D3R (Macaca mulatta, UniProt F6U709).
T2 construct: in vitro autoradiography using Sprague–Dawley rat and non-human primate brains; from tissue; host or cells: non-human primate brain sections
T2 sequence (F6U709 1-400): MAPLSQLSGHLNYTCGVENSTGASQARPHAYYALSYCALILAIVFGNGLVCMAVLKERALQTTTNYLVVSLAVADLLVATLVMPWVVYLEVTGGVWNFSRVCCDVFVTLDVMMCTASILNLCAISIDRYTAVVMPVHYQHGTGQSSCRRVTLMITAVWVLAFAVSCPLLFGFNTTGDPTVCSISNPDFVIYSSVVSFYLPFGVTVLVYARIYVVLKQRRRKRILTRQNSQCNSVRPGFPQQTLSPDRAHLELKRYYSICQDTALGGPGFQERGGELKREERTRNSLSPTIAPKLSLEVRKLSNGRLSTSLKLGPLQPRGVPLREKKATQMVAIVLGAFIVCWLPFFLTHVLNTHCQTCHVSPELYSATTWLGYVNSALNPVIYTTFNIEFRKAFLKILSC
The data set is described as follows: In vitro autoradiography, non-human primate brain sections. It is filed as binding. The following applies: rhesus monkey brain sections. The method, then:
as §2

Data set [9] concerns the target hD2R. Details: method as in Kim et al., 2023. As to conditions: ref Kim et al., 2023; cited from earlier work.
For data set [10], the target named is hD3R. Details: method as in Kim et al., 2023. The following applies: ref Kim et al., 2023; cited from earlier work.
Setting [11] is: rat ventral striatal homogenates, 0.2–0.3 nM [125I]HY-3-24, RT 60 min, mean ± SD of three experiments, read-out: Ki for inhibiting [125I]HY-3-24 binding.
Where [12] appears, read: rat brain coronal sections, ~0.3 nM radioligand.

In general, Ki refers to the equilibrium dissociation constant of an inhibitor or competing ligand from its target. `CCCN1CCO[C@@H]2c3cc(O)ccc3CC[C@H]21` [(+)-PHNO]: at D3R [1] (setting [11]), the Ki turned out to be 1.72 ± 0.46 nM.

Molecule `CCc1cc(Cl)c(OC)c(C(=O)NC[C@@H]2CCCN2CC)c1O` [Eticlopride] yielded a Ki on D3R [1] of 0.25 ± 0.02 nM.

In the case of `OC1(c2ccc(Cl)cc2)CCN(Cc2c[nH]c3ccccc23)CC1` [L-741,626], at D3R [2], the “displacement of [125I]HY-3-24 binding” value was “no displacement”. Moreover, the Ki at D2 receptors is 2.4 nM.

Consider `CCN(CC)CCNC(=O)c1cc(Cl)c(N)cc1OC` [Metoclopramide], for which the Ki at hD2R [3] was 21 ± 1 nM; on hD3R [4], 27 ± 3 nM.

Take `CCCN1CCO[C@@H]2c3cc(O)ccc3OC[C@H]21` [PD128907]: on D3R [1] (setting [11]), the Ki was determined as 7.65 ± 1.15 nM.

Take `CCN1CCC[C@H]1CNC(=O)c1c(O)c(Cl)cc(Cl)c1OC` [Raclopride]: the Ki at D3R [1] (setting [11]) is 2.51 ± 0.9 nM. In addition, the “fold lower affinity/potency for displacing [125I]HY-3-24 relative to eticlopride” value at D3R [1] is reported as 10 fold.

For the molecule `CN1CCc2cc(Cl)c(O)cc2[C@@H](c2ccccc2)C1` [SCH23390], the inhibition constant (Ki) at D3R [1] (setting [11]) was 215 ± 61.7 nM. The “fold lower affinity/potency for displacing [125I]HY-3-24 relative to eticlopride” value on D3R [1] is 1,000 fold.

Usually logD stands for the decadic logarithm of the distribution of all forms, ionised or not, between an organic phase and buffer at a given pH. One may read the Kd as the equilibrium constant for the complex coming apart. In the case of `CCN(CCCNC(=O)c1ccc(-c2ccncc2)cc1)CCNC(=O)c1cc([125I])cc(OC)c1OC` [[^125I]HY-3-24], on D3R [5] (setting [12]), the “binding in NAc including ICjM, and ICj” value is given as “High binding”; the binding in striatum result was “lower amount of binding”. For the same molecule, the “displaceability by (+)-butaclamol and raclopride” value on D3R [5] (rat brain slices, blocking agents 50 nM, radioligand ~0.3 nM) was “fully displaceable”. This molecule also showed a pH-dependent lipophilicity (logD) at 1 min in [6] of 2.41 ± 0.01. Also, at D3R [7] (rat ventral striatal membranes), the “percentage of specific binding” value is recorded as “over 70%”. Also, the “non-specific binding, of total binding” value on D3R [7] (rat ventral striatal membranes, 10 μM (+)-butaclamol) is given as “less than 10%”. For the same molecule, the Kd at D3R [7] (rat ventral striatal membranes, RT 60 min, three experiments) was determined as 0.34 ± 0.22 nM. This molecule also displayed a Bmax on D3R [7] (rat ventral striatal membranes, fmol/mg of protein, three experiments) of 38.91 ± 2.39 fmol/mg. The “time to binding equilibrium” value at D3R [7] (~0.3 nM radioligand, 100 μg protein, RT, persisted until 2 h) is reported as “about 30 min”. The non-specific binding result at D3R [8] (blocking with 2 μM (+)-butaclamol) is given as “low level of non-specific binding”. Further, the “binding in caudate nucleus (Cd), putamen (Pu), NAc, and ICj” value at D3R [8] (~0.1 nM radioligand) was “high density”.

In the case of `CCN(CCCNC(=O)c1ccc(-c2ccncc2)cc1)CCNC(=O)c1cc(Br)cc(OC)c1OC` [compound 6], the Ki at hD2R [9] was 107 ± 5 nM; at hD3R [10], 1.1 ± 0.1 nM.
